# According to the supplement of paper PMC4862054:
# Several values for one entry are separate records, joined by “and”; a condition that tells them apart may be missing. Equal entries are not always repeated.
# Experiments:
# Settings in all cases: incubation time: 72 h
# CAL-120 [1] = experiment: drug sensitivity score (DSS), CellTiter-Blue viability (DSS (AUC-based score)); higher = stronger viability inhibition; extreme values may be limits of the assay
# Procedure: (§1)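 DSRT with the CellTiter-Blue (resazurin reduction) viability readout, fluorescence 560/590 nm, 72 h incubation. Plates were normalised to DMSO and benzethonium chloride controls. DSS is computed from the area under the fitted dose-response curve (5 or 9 concentrations).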
# HCC1937 [2] = experiment: as above
# Procedure: as §1
# Hs578T [3] = experiment: as above
# Procedure: as §1
# MDA-MB-453 [4] = experiment: as above
# Procedure: as §1
# HCC1599 [5] = experiment: as above
# Procedure: as §1
# HDQ-P1 [6] = experiment: as above
# Procedure: as §1
# MDA-MB-468 [7] = experiment: as above
# Procedure: as §1
# CAL-85-1 [8] = experiment: as above
# Procedure: as §1
# MFM-223 [9] = experiment: as above
# Procedure: as §1
# HCC1143 [10] = experiment: as above
# Procedure: as §1
# CAL-148 = experiment: normalised response (% of control), CellTox Green; higher = less cell death (100 = DMSO, 0 = benzethonium chloride kill control)
# How it was run: (§2)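 Each value is the plate-normalised signal at one concentration of the series. Breast cancer cell lines (20 µl suspension) were incubated 72 h in 384-well plates with compound at 5 concentrations in 10-fold steps over a compound-specific 10,000-fold range. CellTox Green and then CellTiter-Glo were read, and each plate was scaled to 0.1 % DMSO (100) and a positive kill control (0).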
# BT-474 = experiment: as above
# How it was run: as §2
# MCF-10A = experiment: as above
# How it was run: as §2
# CAL-120 [11] = experiment: as above
# How it was run: as §2
# MDA-MB-436 = experiment: as above
# How it was run: as §2
# HCC1937 [12] = experiment: as above
# How it was run: as §2
# Hs578T [13] = experiment: as above
# How it was run: as §2
# MDA-MB-453 [14] = experiment: as above
# How it was run: as §2
# HCC1599 [15] = experiment: as above
# How it was run: as §2
# MDA-MB-231 = experiment: as above
# How it was run: as §2
# CAL-51 = experiment: as above
# How it was run: as §2
# HDQ-P1 [16] = experiment: as above
# How it was run: as §2
# MDA-MB-468 [17] = experiment: as above
# How it was run: as §2
# CAL-85-1 [18] = experiment: as above
# How it was run: as §2
# BT-549 = experiment: as above
# How it was run: as §2
# MFM-223 [19] = experiment: as above
# How it was run: as §2
# HCC1143 [20] = experiment: as above
# How it was run: as §2
# DU-4475 = experiment: as above
# How it was run: as §2
SMILES,drug sensitivity score (CAL-120 [1]),drug sensitivity score (HCC1937 [2]),drug sensitivity score (Hs578T [3]),drug sensitivity score (MDA-MB-453 [4]),drug sensitivity score (HCC1599 [5]),drug sensitivity score (HDQ-P1 [6]),drug sensitivity score (MDA-MB-468 [7]),drug sensitivity score (CAL-85-1 [8]),drug sensitivity score (MFM-223 [9]),drug sensitivity score (HCC1143 [10]),normalised response (CAL-148) [%],normalised response (BT-474) [%],normalised response (MCF-10A) [%],normalised response (CAL-120 [11]) [%],normalised response (MDA-MB-436) [%],normalised response (HCC1937 [12]) [%],normalised response (Hs578T [13]) [%],normalised response (MDA-MB-453 [14]) [%],normalised response (HCC1599 [15]) [%],normalised response (MDA-MB-231) [%],normalised response (CAL-51) [%],normalised response (HDQ-P1 [16]) [%],normalised response (MDA-MB-468 [17]) [%],normalised response (CAL-85-1 [18]) [%],normalised response (BT-549) [%],normalised response (MFM-223 [19]) [%],normalised response (HCC1143 [20]) [%],normalised response (DU-4475) [%]
CC(=O)c1c(C)c2cnc(Nc3ccc(N4CCNCC4)cn3)nc2n(C2CCCC2)c1=O,8.76,0,2.19,8.21,0,0,0,0,0,6.22,,,,,,,,,,,,,,,,,,
COc1cc2c(cc1O)CC[C@@H]1[C@@H]2CC[C@]2(C)[C@@H](O)CC[C@@H]12 [2-methoxyestradiol],8.63,9.5,9.08,9.7,0,5.38,2.79,5.36,0,4.05,,,,,,,,,,,,,,,,,,
Cc1sc2c(c1C)C(c1ccc(Cl)cc1)=N[C@@H](CC(=O)OC(C)(C)C)c1nnc(C)n1-2 [(+)JQ1],11.2,6.88,11,17.2,7.63,0,5.95,10.5,10.1,6.54,,,,,,,,,,,,,,,,,,
Oc1ncnc2[nH]ncc12 [Allopurinol],0,0,0,0,0,0,0,0,0,0,,,,,,,,,,,,,,,,,,
O=C1CN2Cc3c(ccc(Cl)c3Cl)N=C2N1 [Anagrelide],0,2.41,0,0,0,0,0,0,0,0,,,,,,,,,,,,,,,,,,
Nc1ncn([C@@H]2O[C@H](CO)[C@@H](O)[C@H]2O)c(=O)n1 [Azacitidine],0.768,5.11,3.33,0,0,0,11.3,0,0,0,,,,,,,,,,,,,,,,,,
O=NN(CCCl)C(=O)NCCCl [Carmustine],0,0,0,0,0,0,0,0,0,0,,,,,,,,,,,,,,,,,,
CC1=C2C[C@H]3[C@@H](CC=C4C[C@@H](O)CC[C@@]43C)[C@@H]2CC[C@]12O[C@@H]1C[C@H](C)CN[C@H]1[C@H]2C [Cyclopamine],0,0,0,0,0,0,0,0,0,0,,,,,,,,,,,,,,,,,,
CC(=O)O[C@@]12CO[C@@H]1C[C@H](O)[C@@]1(C)C(=O)[C@H](O)C3=C(C)[C@@H](OC(=O)[C@H](O)[C@@H](NC(=O)OC(C)(C)C)c4ccccc4)C[C@@](O)([C@@H](OC(=O)c4ccccc4)[C@H]21)C3(C)C [Docetaxel],24 and 24.9,27.2 and 24.9,31.2 and 30.6,24.2 and 24.9,0,17.8 and 22.5,19.4 and 20.5,22.5 and 22.9,16.2 and 17.8,19.6 and 25.2,,,,,,,,,,,,,,,,,,
C[C@]12CC[C@@H]3c4ccc(OC(=O)N(CCCl)CCCl)cc4CC[C@H]3[C@@H]1CC[C@@H]2O [Estramustine],0,0,0,0,0,0,0,0,0,0,,,,,,,,,,,,,,,,,,
CC1(C)CNc2cc(NC(=O)c3cccnc3NCc3ccncc3)ccc21 [Motesanib],0,0,0,0,0,0,0,0,0,0,,,,,,,,,,,,,,,,,,
CC1(C)CNc2cc(NC(=O)c3cccnc3NCc3ccncc3)ccc21 [Motesanib] (10000 nM),,,,,,,,,,,102,98.2,80.4,96.7,109,98.6,86.8,101,108,114,101,94.1,123,94.5,103,97.2,94,101
C[C@]1(O)C[C@@H](c2nc(-c3ccc4ccc(-c5ccccc5)nc4c3)c3c(N)nccn32)C1 [OSI-906],0,4.24,2,0,3.98,6.19,0,1.93,0,2.39,,,,,,,,,,,,,,,,,,
CC[C@@H]1C(=O)OC[C@@H]1Cc1cncn1C [Pilocarpine],0,0,0,0.965,0,0,0,0,0,0,,,,,,,,,,,,,,,,,,
COc1cc(F)c(F)c(Nc2ccc(I)cc2F)c1NS(=O)(=O)C1(C[C@H](O)CO)CC1 [RDEA119],7.36,5.85,8.25,5.64,0,11.4,4.71,10.3,5.52,8.17,,,,,,,,,,,,,,,,,,
CC(C)(C)c1cnc(CSc2cnc(NC(=O)C3CCNCC3)s2)o1 [SNS-032],18.9,20.4,23.1,20,18,21.3,16.5,22.1,17.5,17.4,,,,,,,,,,,,,,,,,,
CC(C)(C)c1cnc(CSc2cnc(NC(=O)C3CCNCC3)s2)o1 [SNS-032] (1000 nM),,,,,,,,,,,96.3,90,24,88.6,102,115,25,99.2,71.2,-97.4,55.9,62.6,84,17.1,80.4,63.5,86.3,86.1
CC(C)(C)c1cnc(CSc2cnc(NC(=O)C3CCNCC3)s2)o1 [SNS-032] (10000 nM),,,,,,,,,,,91.3,93,26.3,94.1,94.2,76.1,41.9,99.2,77.1,-26.5,81.1,68.4,44.3,42.8,76,76.7,76.9,91.7
Cn1cnc2c(F)c(Nc3ccc(Br)cc3Cl)c(C(=O)NOCCO)cc21 [Selumetinib],0.649,2.95,1.17,0,3.63,4.32,0,6.78,0,12.6,,,,,,,,,,,,,,,,,,
Cn1cnc2c(F)c(Nc3ccc(Br)cc3Cl)c(C(=O)NOCCO)cc21 [Selumetinib] (1000 nM),,,,,,,,,,,99.2,96.9,90.4,81.4,80.4,88.9,100,104,89.4,43.8,103,77.2,108,77.5,116,93.2,70.1,60.8
Cn1cnc2c(F)c(Nc3ccc(Br)cc3Cl)c(C(=O)NOCCO)cc21 [Selumetinib] (10000 nM),,,,,,,,,,,96,99.4,74.4,87.3,101,98.3,89.5,101,108,21.6,101,75,-53.9,108,99.7,100,97,62.3
Nc1nc2[nH]cnc2c(=S)[nH]1 [Thioguanine],7.28,3.55,2.55,0,0,0,7.48,3.32,0,0,,,,,,,,,,,,,,,,,,
Nc1nc2[nH]cnc2c(=S)[nH]1 [Thioguanine] (10000 nM),,,,,,,,,,,92.2,103,108,97.7,93.2,83.7,133,97.6,96.2,85.2,80.3,101,51.8,97.4,87,103,106,91.9
